The values that follow come from ChEMBL document CHEMBL5137073, “Optimization and Mechanistic Investigations of Novel Allosteric Activators of PKG1α” (J Med Chem, 2022).

Data set [1] has as its target T1, cGMP-dependent protein kinase 1 (Homo sapiens, UniProt Q13976).
T1 sequence (Q13976 whole entry): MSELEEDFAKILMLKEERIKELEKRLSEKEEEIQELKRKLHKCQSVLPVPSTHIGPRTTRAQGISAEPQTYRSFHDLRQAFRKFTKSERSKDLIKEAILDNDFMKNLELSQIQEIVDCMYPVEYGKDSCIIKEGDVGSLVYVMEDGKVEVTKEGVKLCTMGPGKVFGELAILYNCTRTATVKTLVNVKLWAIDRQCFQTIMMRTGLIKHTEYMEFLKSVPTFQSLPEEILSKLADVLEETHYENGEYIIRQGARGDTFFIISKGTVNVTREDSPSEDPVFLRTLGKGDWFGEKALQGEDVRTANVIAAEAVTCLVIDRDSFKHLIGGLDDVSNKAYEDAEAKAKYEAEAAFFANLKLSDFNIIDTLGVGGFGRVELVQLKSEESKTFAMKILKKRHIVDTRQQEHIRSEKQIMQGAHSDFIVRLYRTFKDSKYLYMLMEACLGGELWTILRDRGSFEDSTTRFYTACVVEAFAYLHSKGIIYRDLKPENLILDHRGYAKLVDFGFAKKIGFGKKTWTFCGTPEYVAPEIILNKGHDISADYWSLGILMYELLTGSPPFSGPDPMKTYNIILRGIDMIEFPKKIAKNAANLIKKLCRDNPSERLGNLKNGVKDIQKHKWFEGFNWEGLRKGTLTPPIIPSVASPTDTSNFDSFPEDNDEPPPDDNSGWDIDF
Kind of data set: Activation of basal state recombinant PKG1alpha (unknown origin) using Glass-tide peptide substrate incubated for 30 mins followed by ATP addition and measured after 2 hr by ADP-GLO Max Assay. Background: ADP-Glo first removes unused ATP, then detects ADP through luciferase.

Data set [2] concerns the target T1, cGMP-dependent protein kinase 1. Kind of data set: Activation of cGMP induced partially activated state recombinant PKG1alpha (unknown origin) using Glass-tide peptide substrate incubated for 30 mins followed by ATP addition and measured after 2 hr in presence of cGMP by ADP-GLO Max Assay.
The nature of data set [3]: Solubility of compound at pH 7. The class given is physicochemical. Particulars: buffer.
Data set [4] can be described thus: Apparent permeability in dog MDCK-II cells. The class given is ADME, cell-based, Canis lupus familiaris.
Data set [5] deals with T1, cGMP-dependent protein kinase 1.
Description: Activation of PKG1alpha in human HEK293 cells stably expressing VASP assessed as VSAP phosphorylation at Ser 239 incubated for 45 mins by HTRF assay
Data set [6] can be described thus: Volume of distribution in Wistar Han male rat plasma at 1 mg/kg, iv or 5 mg/kg, po and measured upto 8 hrs post dose by LC-MS/MS analysis. In kind it is ADME, organism-based.
The nature of data set [7]: Solubility of compound at pH 2. The class given is physicochemical. Conditions: buffer.
The nature of data set [8]: Solubility of compound in FaSSIF. In kind it is physicochemical.
The nature of data set [9]: Clearance in Wistar Han male rat plasma at 1 mg/kg, iv or 5 mg/kg, po and measured upto 8 hrs post dose by LC-MS/MS analysis. The class given is ADME, organism-based.
Data set [10] is described as follows: MRT in Wistar Han male rat plasma at 1 mg/kg, iv and measured upto 8 hrs post dose by LC-MS/MS analysis. In kind it is ADME, organism-based.
Data set [11] is described as follows: Protein binding in Wistar Han male rat plasma at 1 mg/kg, iv or 5 mg/kg, po and measured upto 8 hrs post dose by LC-MS/MS analysis. Conditions: read-out: PPB. The class given is ADME, organism-based.
The nature of data set [12]: Oral bioavailability in Wistar Han male rat plasma at 5 mg/kg and measured upto 8 hrs by LC-MS/MS analysis. The class given is ADME, organism-based.
A short description of data set [13]: Clearance in Wistar Han male rat plasma at 0.05 mg/kg, iv and measured upto 8 hrs post dose by LC-MS/MS analysis. In kind it is ADME, organism-based.
The nature of data set [14]: Volume of distribution in Wistar Han male rat plasma at 0.05 mg/kg, iv and measured upto 8 hrs post dose by LC-MS/MS analysis. The class given is ADME, organism-based.
The nature of data set [15]: MRT in Wistar Han male rat plasma at 0.05 mg/kg, iv and measured upto 8 hrs post dose by LC-MS/MS analysis. In kind it is ADME, organism-based.
Data set [16] in a line: Protein binding in Wistar Han male rat plasma at 0.05 mg/kg, iv and measured upto 8 hrs post dose by LC-MS/MS analysis. In kind it is ADME, organism-based. Particulars: read-out: PPB (converted).

One may read the EC50 as the concentration at which the effect is half-maximal. As usually defined, the solubility is the concentration that dissolves in the medium under given conditions. Read a high solubility as much dissolved substance. The term Papp denotes a coefficient for how fast a substance crosses the barrier. The term MRT denotes a mean duration of stay, worked out from the concentration-time curve. As usually defined, the bioavailability is the share of a dose that reaches the circulation, judged against a reference dose that is usually intravenous. A low value points to poor availability.

Structures are written as SMILES. Converted amounts (≈) assume the structure as drawn. A value given as a limit tells only on which side of the number the result lay.

In the case of `OC[C@@H](O[C@H]1CCCN(Cc2ncc[nH]2)[C@H]1c1ccccc1)c1cc(Cl)cc(Cl)c1`, the EC50 was over 200 µM in [1], 47 µM in data set [2] and over 164 µM in data set [5]. In [3], the concentration in solution (solubility) came to 120 µM (≈ 53.6 µg/mL). Further, the Papp in data set [4] was found to be 2 ×10⁻⁶ cm/s.

In the case of `O=C(O)c1ccc(CN2CCC[C@H](O[C@H](CO)c3cc(Cl)cc(Cl)c3)[C@@H]2c2ccccc2)cc1`, the EC50 in data set [1] amounted to 77 µM. Moreover, the solubility in [3] came out at 85 µM (≈ 42.5 µg/mL).

For the compound `Cc1cc(C(=O)O)ccc1C(=O)N1CCC[C@H](O[C@H](CO)c2cc(Cl)cc(Cl)c2)[C@@H]1c1ccccc1`, the EC50 in [1] and in data set [2] was over 200 µM throughout.

As to `O=C(O)C12CC(CN3CCC[C@H](O[C@H](CO)c4cc(Cl)cc(Cl)c4)[C@@H]3c3ccccc3)(C1)C2`, the EC50 in [1] is over 200 µM; in data set [2], 12 µM.

Turning to `Cc1cc(C(=O)O)ccc1CN1CCC[C@@]2(C[C@@H](c3ccccc3)CO2)[C@@H]1c1ccccc1`, the EC50 was over 200 µM in data set [1] and 43 µM in data set [2].

Turning to `Cc1cc(C(=O)O)ccc1CN1C(=O)CC[C@H](OCc2cc(Cl)cc(Cl)c2)[C@@H]1c1ccccc1`, the EC50 in data set [1] is over 200 µM; in data set [2], 169 µM.

Compound `Cc1cc(C(=O)O)ccc1CN1CCC[C@H](O[C@H](CO)c2cc(Cl)cc(Cl)c2)[C@@H]1c1ccccc1` came in with a Vd in [6] of 0.33 L/kg. Moreover, the solubility in data set [3] is 157 µM (≈ 80.8 µg/mL); in [7] it was 196 µM (≈ 101 µg/mL); in [8] it was 36 µM (≈ 18.5 µg/mL). Further, the Papp in data set [4] came to 22 ×10⁻⁶ cm/s. Also, the clearance in data set [9] amounted to 2.5 mL/min/kg. The compound further had an MRT in data set [10] of 2.3 h. In addition, in data set [11], the fraction unbound at 8 h came out at 0.001. The bioavailability in [12] worked out at 62%.

Regarding `O=C(O)c1ccc(CN2CCC[C@H](O[C@H](CO)c3cc(Cl)cc(Cl)c3)[C@@H]2c2ccccc2)c([N+](=O)[O-])c1`, the solubility in data set [3] stood at 110 µM (≈ 60 µg/mL); in [7] it was 172 µM (≈ 93.8 µg/mL); in [8], 112 µM (≈ 61.1 µg/mL). Further, the Papp in data set [4] amounted to 10 ×10⁻⁶ cm/s. In data set [13], this compound returned a clearance of 8.1 mL/min/kg. The compound also registered a Vd in [14] of 0.45 L/kg. In data set [15], this compound showed an MRT of 0.9 h. In data set [16], the fraction unbound at 8 h is under 0.001.

Turning to `Cc1cc(C(=O)O)ccc1CN1CCC[C@H](O[C@H](CO)c2ccnc(Cl)c2)[C@@H]1c1ccccc1`, the EC50 is over 200 µM in [1] and 50 µM in data set [2].

As to `Nc1cc(C(=O)O)ccc1CN1CCC[C@H](O[C@H](CO)c2cc(Cl)cc(Cl)c2)[C@@H]1c1ccccc1`, the solubility in [3] worked out at 78 µM (≈ 40.2 µg/mL); in [7] it was 126 µM (≈ 64.9 µg/mL); in [8] it was 137 µM (≈ 70.6 µg/mL). For the same compound, in data set [4], the Papp came to 21 ×10⁻⁶ cm/s. This compound came in with a clearance in data set [13] of 4.4 mL/min/kg. In data set [14], this compound gave a Vd of 0.5 L/kg. The compound also gave an MRT in [15] of 1.9 h. Also, the fraction unbound at 8 h in [16] was 0.002.

`Cc1cc(C(=O)O)ccc1CN1C(C)CC[C@H](O[C@H](CO)c2cc(Cl)cc(Cl)c2)[C@@H]1c1ccccc1` (stereo not given in full): the EC50 was 130 µM in [1] and 36 µM in data set [2].

On to `CC(=O)NS(=O)(=O)c1ccc(CN2CCC[C@H](O[C@H](CO)c3cc(Cl)cc(Cl)c3)[C@@H]2c2ccccc2)cc1`, for which the EC50 in data set [1] was over 200 µM; in [2] it was 14 µM.

In the case of `Cc1cc(C(=O)O)ccc1CN1CC[C@H](OC(CO)c2cc(Cl)cc(Cl)c2)[C@@H]1c1ccccc1` (stereo not given in full), the figures for the EC50 in [1] and in [2] were 185 µM and 133 µM, respectively.

In the case of `Cc1cc(C(=O)O)ccc1CN1CCC[C@H](O[C@H](CO)c2cc(Cl)cc(Cl)c2)[C@@H]1c1ccc(F)cc1`, the concentration for a half-maximal effect (EC50) in [2] stood at 18 µM.

As for `Cc1cc(C(=O)O)ccc1CN1CCC[C@H](O[C@H](CO)c2cc(Cl)cc(Cl)c2)[C@@H]1c1cccc(F)c1`, the EC50 in data set [2] was 12 µM.

As to `COc1cccc([C@@H](CO)O[C@H]2CCCN(Cc3ccc(C(=O)O)cc3C)[C@H]2c2ccccc2)c1`, the EC50 in data set [1] is over 200 µM; in data set [2], 81 µM.

`Cc1cc(C(=O)O)ccc1CN1CCC[C@H](O[C@H](CO)c2ccccc2)[C@@H]1c1ccccc1`: the EC50 in data set [1] was over 200 µM; in [2], 25 µM.

Turning to `Cc1cc(C(=O)O)ccc1C(C)N1CCC[C@H](O[C@H](CO)c2cc(Cl)cc(Cl)c2)[C@@H]1c1ccccc1` (stereo not given in full), in data set [2], the EC50 turned out to be 18 µM.

In the case of `Cc1cc(C(=O)O)ccc1CN1CCC[C@H](O[C@H](CO)c2cc(Cl)cc(Cl)c2)[C@@H]1C1CCCCC1`, the EC50 in [1] was over 200 µM; in data set [2] it was 65 µM.

On to `Cc1cc(C(=O)O)ccc1CN1CCC[C@H](OC(c2cc(Cl)cc(Cl)c2)C(C)(C)O)[C@@H]1c1ccccc1` (stereo not given in full), for which the EC50 in [1] is 121 µM; in data set [2], 17 µM.

`Cc1cc(C(=O)O)ccc1CN1CCC[C@H](O[C@H](CO)c2cc(Cl)cc(Cl)c2)[C@@H]1c1cccnc1` (racemic): the EC50 in data set [2] is 47 µM.
